Assay results from patent US8871735B2, “Methods and compositions for providing cardiac protection” (University of Medicine and Dentistry of New Jersey, priority 2008, dated 2014).
Values joined by “and” are separate entries in the source; they are usually repeats but may differ in a detail not shown here. Equal entries are not always repeated. “Also recorded” adds a separate entry of the source. Where two headings read alike, the source gives them in different places.

How the values were obtained:
H9C2 cells = assay: cAMP accumulation in H9C2 cells; type: cell-based; details: 5 μM ISO, 3 minutes, 10 μM drug
From the text: […] Fludarabine ((+)-2-Fluoro-9-(5-O-phosphono-β-D-arabinofuranosyl)-9H-purin-6-amine) and Cladribine (2-chloro-2′-deoxyadenosine) are anti-cancer drugs, Adefovir (Bis(2,2-dimethylpropanoyloxymethyl)[2-(6-amino-9H-purin-9-yl)ethoxymethyl]phosphonate) and Zidovudine are anti-HIV drugs. Zidovudine-TP is a metabolite of zidovudine which inhibits virus replication. TP; triphosphate. 3-Deazaadenosine, Formycin A (7-Amino-3-(β-D-ribofuranosyl)-1H-pyrazolo[4,3-d]pyrimidine), 2-Far (2-Fluoroadenosine), formycin A ((2S,3R,4S,5R)-2-(7-amino-2H-pyrazolo[5,4-e]pyramidin-3-yl-5-(hydroxymeth-yl)oxolane-3,4-diol), 2-FD (2-Fluoro-2′-deoxyadenosine) and 2′5′ ddAdo (2′5′-dideoxyadenosine) are experimental drugs.
(§1) Mice were anesthetized with 2.5% tribromoethanol (0.010 to 0.015 mL per gram of body weight) injected intraperitoneally, and echocardiography was performed with ultrasonography (ACUSON Sequoia C256, Siemens Medical Solutions, Malvern, Pa.). For acute injection of isoproterenol, forskolin and milrinon, a PE-10 catheter was inserted into the right jugular vein, and drugs were injected at the rate of 1 μl/s. cAMP accumulation assay in H9C2 cells, a cardiac myoblast cell line, was examined as previously described.

type 5 AC = type 5 AC (Homo sapiens, UniProt O95622); assay: Double-reciprocal plots of type 5 AC catalytic activity against ATP
Procedure: Hearts and striatum were dissected from the mice and membrane preparations were made as previously described. This crude membrane preparation was used in the AC assay. AC activity was measured by a modification of the method of Salomon et al. as previously described. […] Double-reciprocal plots were examined as previously described.

[1] = tested on: C57Bl/6 mice, chronic ISO infusion; assay: Chronic ISO infusion heart failure model; type: in vivo, mouse
From the text: ISO with or without AC5 inhibitors were chronically infused with osmotic mini-pump implanted subcutaneously at indicated doses for 1 week in c57Bl/6 mice. Mice were then subjected to echocardiography (a) and the hearts were removed and subjected to pathological examinations such as myocardial apoptosis (b) and fibrosis (c). n=4-8.
In C57Bl/6 mice, ISO with or without AC5 inhibitors or metoprolol were chronically infused with an osmotic mini-pump at the indicated doses for 1 week. Mice were then subjected to echocardiography (a) and heart tissue were subjected to a myocardial apoptosis assay (b). *, p<0.01 vs vehicle. #, p<0.05 vs vehicle. .dagger., p<0.01 vs ISO. .dagger-dbl., p<0.05 vs ISO. n=4-15. […] Comparisons between multiple groups were made using ANOVA with post-hoc tests.
Tenofovir diphosphate (PMPA-PP), zidovudine monophosphate (MP), zidovudine diphosphate (PP), zidovudine triphosphate (TP), famciclovir penciclovir and valaciclovir were purchased from Moravek. Formycin A (FMA) and Formycin B (FMB) were purchased from Berry and Associates. All other reagents were from Sigma unless specified. Long-term infusion of isoproterenol (Sigma, St. Louis, Mo.) was performed for 7 days at a dose of 60 mg/kg/d with or without AC5 inhibitors by using a miniosmotic pump (ALZET model 2001, DURECT Corp, Cupertino, Calif.). Control mice received vehicle in pumps. Pumps were removed 24 hours before biochemical and physiological studies. Experiments were performed in 3- to 5-month-old male C57Bl/6, and in AC5Tg transgenic mice. This study was approved by the Animal Care and Use Committee at New Jersey Medical School.
as §1

cardiac myocytes = assay: ISO-induced apoptosis in cultured cardiac myocytes (DNA fragmentation ELISA); type: cell-based; details: 100 μM ISO, 48 h
Procedure: Cultured cardiac myocytes were incubated with 100 μM ISO in the presence or absence of AC5 inhibitors at the indicated concentrations for 48 h.

AC5 [2] = assay: AC inhibition, recombinant AC proteins: AC5; type: biochemical
AC5 [3] = target: T1, AC5 (UniProt P30803); assay: AC inhibition, recombinant AC proteins: AC5; type: biochemical; details: read-out: IC50 for AC5
T1 construct: IC50 AC5; other: recombinant AC proteins; other: THFA: in the presence of Gs-α/GTPαS/forskolin

WT and AC5KO mice = assay: Heart rate and arterial pressure in conscious WT and AC5KO mice; type: in vivo, mouse; details: for decrease in HR in conscious AC5KO / decrease in HR in conscious WT: 0.01 μg/g (0.01 mg/kg) i.v.
From the text: In AC5KO and WT mice, four ECG wires (New England Electric Wire Corporation, Lisbon, N.H., USA) were placed subcutaneously, a silicone elastomer tubing (Cardiovascular Instrument Corp., Wakefield, Mass., USA) was inserted into the right external jugular vein and a 1.4 F micromanometer catheter (Millar Instruments, Inc., Houston, Tex., USA) was inserted into the lower abdominal aorta via the femoral artery as described previously with some modifications. The ECG wires, the silicone elastomer tubing and the micromanometer catheter were tunneled subcutaneously to the back, externalized, and secured in a plastic cap. On the day of the study, each mouse was placed in the mouse holder, the jugular venous catheter was accessed and connected to a microliter syringe (Hamilton Co., Reno, Nev., USA), the 1.4 F micromanometer catheter was connected to a recorder (Dash 4u; Astro-Med, Inc., West Warwick, R.I., USA) and the ECG wires were connected to an ECG amplifier (Gould Inc., Cleveland, Ohio, USA). All experiments were recorded with animals in the conscious state. After at least 6 hours recovery from the implantation of the catheter, when a stable heart rate (HR) was achieved, the baseline ECG and arterial pressure (AP) were recorded for 5 min. Ach (0.05 μg/g) was then administered intravenously (i.v.), and the ECG and AP recording were repeated. A recovery period of 15 min was allowed for the HR and AP to return to baseline before administering the next drug. Baseline HR slowing was examined in response to phenylephrine (0.2 μg i.v.).
Electrocardiogram (ECG) wires, a jugular vein catheter for drug infusion, and a femoral artery catheter for arterial pressure monitoring were implanted under anesthesia. Measurements of left ventricular ejection fraction (LVEF) were taken using echocardiography under anesthesia with 2.5% tribromomethanol (0.010-0.015 ml/g body wt) injected intraperitoneally (i.p.). Intravenous (i.v.) infusion of ISO (0.04 μg/kg/min i.v. for 5 min) was performed using an infusion pump. To examine the responses to a muscarinic agonist, acetylcholine (ACh) (25 mg/kg i.p.) was co-administered i.p. during the i.v. infusion of ISO (0.04 μg/kg/min). In addition, in conscious mice ACh (0.01 and 0.05 mg/kg), atropine (0.25, 1 and 2 mg/kg), or verapamil (0.75 mg/kg) were administered i.v., and the ECG was recorded. A recovery period of 15 min was allowed for the HR to return to baseline before administering the next drug. To examine HR responses to baroreflex hypertension, phenylephrine (0.2 mg/kg i.v.) was infused, and the ECG and arterial pressure were measured.

AC = AC activity in heart membranes from WT and AC5KO mice; type: biochemical, mouse
Procedure: Protein concentration was measured by the method of Bradford using bovine serum albumin as a standard. AC activity was measured as described previously. AC activity was linear within the incubation time up to 30 min. In order to harvest hearts for tissue cAMP content measurements, mice were allowed to acclimate to the surroundings in the laboratory for an hour before sacrifice. Freshly isolated hearts were briefly immersed in liquid nitrogen. The tissue was homogenized in ice-cold 6% percholic acid, and cAMP was extracted as described before. The concentration of cAMP was determined with an RIA kit (PerkinElmer Life Sciences, Boston, Mass., USA).
cAMP production in membranes from the hearts of AC5KO and WT at 6 months of age was examined. The steady state AC activity was determined as the maximal capacity of cAMP production in the presence of ISO (100 μM ISO+100 μM GTP), GTPγS (100 μM) or forskolin (100 μM). […] Basal cardiac function was not decreased, but the response to ISO and muscarinic inhibition of ISO were attenuated.
Protein concentration was measured by the Bradford method using bovine serum albumin as a standard. AC activity was measured as described previously. AC activity was linear within the incubation time up to 30 min. For the study of Ca^2+ inhibition, the membranes were treated first with EGTA to extract the endogenous Ca^2+ prior to the assay. Free Ca^2+ concentrations were obtained with the use of 200 μmol/L EGTA buffers as described previously. The experiments with Ca^2+ inhibition were conducted in the presence of 100 μmol/L isoproterenol (ISO) plus 100 μmol/L GTP.
cAMP production in membranes from the hearts of AC5KO and WT mice at the age of 6 months were examined. The steady state AC activity in the membrane preparation was determined as the maximal capacity of cAMP production in the presence of ISO ([…], ISO+100 μmol/L GTP), guanosine-5′-O-(3-triophosphate) GTP[…]S (100 μmol/L), or forskolin (100 μmol/L). AC activity was decreased in AC5KO relative to that of WT by 35+/−4% (basal), 27+/−5% (ISO), 27+/−2% (GTPγS), and 40+/−5% (forskolin).

Sequence of type 5 AC (O95622 whole entry, the tested form may be a part): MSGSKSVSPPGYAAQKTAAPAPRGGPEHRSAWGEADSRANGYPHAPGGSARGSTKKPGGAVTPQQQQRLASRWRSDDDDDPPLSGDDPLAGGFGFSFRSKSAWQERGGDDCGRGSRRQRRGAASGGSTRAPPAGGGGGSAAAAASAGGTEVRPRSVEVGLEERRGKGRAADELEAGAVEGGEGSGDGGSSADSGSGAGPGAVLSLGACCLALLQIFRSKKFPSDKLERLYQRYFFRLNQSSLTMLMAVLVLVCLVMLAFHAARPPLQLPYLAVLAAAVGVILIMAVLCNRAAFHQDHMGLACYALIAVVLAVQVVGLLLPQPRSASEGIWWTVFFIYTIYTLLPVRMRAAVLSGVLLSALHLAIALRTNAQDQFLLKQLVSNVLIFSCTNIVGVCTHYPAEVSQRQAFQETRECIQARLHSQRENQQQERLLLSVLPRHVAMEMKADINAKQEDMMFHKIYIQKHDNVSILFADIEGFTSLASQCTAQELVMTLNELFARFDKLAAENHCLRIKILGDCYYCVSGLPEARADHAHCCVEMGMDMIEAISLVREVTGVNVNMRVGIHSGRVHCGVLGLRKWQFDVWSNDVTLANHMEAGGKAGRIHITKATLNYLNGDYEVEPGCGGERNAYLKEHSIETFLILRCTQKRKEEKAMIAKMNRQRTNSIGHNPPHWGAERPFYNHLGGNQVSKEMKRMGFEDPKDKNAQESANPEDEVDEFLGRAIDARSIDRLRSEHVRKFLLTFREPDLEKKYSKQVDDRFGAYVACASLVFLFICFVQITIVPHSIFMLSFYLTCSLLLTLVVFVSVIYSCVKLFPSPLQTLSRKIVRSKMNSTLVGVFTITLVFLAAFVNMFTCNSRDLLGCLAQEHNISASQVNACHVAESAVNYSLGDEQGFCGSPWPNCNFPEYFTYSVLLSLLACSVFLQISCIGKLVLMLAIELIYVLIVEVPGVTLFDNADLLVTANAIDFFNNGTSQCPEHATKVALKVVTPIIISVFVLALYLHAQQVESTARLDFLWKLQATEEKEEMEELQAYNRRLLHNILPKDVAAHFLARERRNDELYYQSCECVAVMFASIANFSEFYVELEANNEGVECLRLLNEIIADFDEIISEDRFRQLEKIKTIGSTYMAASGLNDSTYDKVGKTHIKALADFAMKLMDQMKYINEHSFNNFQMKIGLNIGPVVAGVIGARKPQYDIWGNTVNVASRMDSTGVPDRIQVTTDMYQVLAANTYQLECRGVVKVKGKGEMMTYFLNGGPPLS

CC(Cn1cnc2c(N)ncnc21)OCP(=O)(O)OP(=O)(O)OP(=O)(O)O (stereo in doubt) [PMPA-PP, Tenofovir diphosphate]
inhibition of cAMP accumulation in H9C2 cells (H9C2 cells): little inhibition

Nc1nc(F)nc2c1ncn2[C@@H]1O[C@H](CO)[C@@H](O)[C@H]1O [2-fluoroadenosine, 2-Fluoroadenosine]
mode of inhibition with respect to ATP (type 5 AC): non-competitive | inhibition of cAMP accumulation in H9C2 cells (H9C2 cells): moderately inhibited

C[C@H]1O[C@@H](n2cnc3c(N)ncnc32)C[C@@H]1O [2′5′-dd-Ado, 2′5′-dideoxyadenosine]
ISO-induced decrease in LVEF (and FS) ([1]; ISO 60 mg/kg/d 7 days, Ara-Ade 20 and 100 mg/kg/day, 2′5′ ddAdo 20 mg/kg/day): rescued LVEF and FS reduction | ISO-induced cardiac fibrosis ([1]; chronic ISO infusion): significantly inhibited | ISO-induced myocardial apoptosis in vivo ([1]; chronic ISO infusion): significantly inhibited | ISO-induced wall thickening (DESP, DPW) ([1]; chronic ISO infusion): neither Ara-Ade nor 2′5′ ddAdo inhibited | LVW/BW and myocyte cross sectional area ([1]; chronic ISO infusion): increased | mode of inhibition with respect to ATP (type 5 AC): non-competitive | ISO-induced apoptosis in cultured cardiac myocytes (cardiac myocytes): abolished | Selectivity ratio for AC5, AC5/AC2 (AC5 [2]; ratio of IC50 for AC5 to that for AC2): 0.00067 | Selectivity ratio for AC5, AC5/AC3 (AC5 [2]; ratio of IC50 for AC5 to that for AC3): 0.0063 | inhibition of cAMP accumulation in H9C2 cells (H9C2 cells): greatest inhibition

Nc1ncnc2c1ncn2[C@H]1C[C@H](OP(=O)(O)O)[C@@H](CO)O1 [2′-d-3′-AMP]
IC50 (AC5 [3]): 0.82 µM

Nc1ncnc2c1ncn2[C@@H]1O[C@H](CO)[C@@H](OP(=O)(O)O)[C@H]1O [3′-AMP]
IC50 (AC5 [3]; THFA: in the presence of Gs-α/GTPαS/forskolin): 14.6 µM

CC(=O)OCC[N+](C)(C)C [ACh, acetylcholine]
decrease in HR in conscious AC5KO (WT and AC5KO mice; AC5KO): 1.3% | decrease in HR in conscious AC5KO (WT and AC5KO mice; AC5KO, listed as Ach): 7.5% | decrease in HR in conscious WT (WT and AC5KO mice; WT): 15% | decrease in HR in conscious WT (WT and AC5KO mice; WT, listed as Ach): 22%

C[N+](C)(C)CCOC(N)=O [Carbachol]
inhibition of ISO-stimulated AC activity in AC5KO (AC; 10 μM, AC5KO heart membranes): did not inhibit; also recorded: hardly detectable | decrease of ISO-stimulated AC activity in WT (AC; 10 μM, WT heart membranes): 21+/−3.4% and 21+/−3%

Nc1ncnc2c([C@@H]3O[C@H](CO)[C@@H](O)[C@H]3O)n[nH]c12 [FMA, 7-Amino-3-(β-D-ribofuranosyl)-1H-pyrazolo[4,3-d]pyrimidine]
inhibition of cAMP accumulation in H9C2 cells (H9C2 cells): moderately inhibited

CC(C)NCC(O)c1ccc(O)c(O)c1 (centres unmarked) [ISO, isoproterenol]
increase in AC activity in AC5KO (AC; 100 μmol/L ISO + 100 μmol/L GTP, AC5KO): 64+/−4 pmol/15 min/mg | increase in AC activity in WT (AC; 100 μmol/L ISO + 100 μmol/L GTP, WT): 78+/−6 pmol/15 min/mg

CNC[C@H](O)c1cccc(O)c1 [Phenylephrine]
systolic arterial pressure (WT and AC5KO mice; 0.2 μg/g (0.2 mg/kg) i.v., WT and AC5KO): increased systolic arterial pressure significantly in both WT and AC5KO; also recorded: increased systolic arterial pressure similarly in both WT and AC5KO

CN1[C@@H]2CC[C@H]1C[C@@H](OC(=O)C(CO)c1ccccc1)C2 (some centres unmarked) [atropine]
increase in HR in AC5KO (WT and AC5KO mice; 1 μg/g i.v., AC5KO): 19+/−7.5 beats/min | increase in HR in WT (WT and AC5KO mice; 1 μg/g i.v., WT): 102+/−22.2 beats/min

Nc1nc(Cl)nc2c1ncn2[C@H]1C[C@H](O)[C@@H](CO)O1 [cladribine, 2-chloro-2′-deoxyadenosine]
inhibition of cAMP accumulation in H9C2 cells (H9C2 cells): slight inhibition

COc1ccc(CCN(C)CCCC(C#N)(c2ccc(OC)c(OC)c2)C(C)C)cc1OC (centres unmarked) [verapamil]
change in HR in AC5KO (WT and AC5KO mice; 0.75 mg/kg i.v., AC5KO): −33+/−10 beats/min | change in HR in WT (WT and AC5KO mice; 0.75 mg/kg i.v., WT): −36+/−10 beats/min

Cc1cn([C@H]2C[C@H](N=[N+]=[N-])[C@@H](COP(=O)(O)OP(=O)(O)OP(=O)(O)O)O2)c(=O)[nH]c1=O [zidovudine-TP, zidovudine triphosphate]
mode of inhibition with respect to ATP (type 5 AC): competitive | inhibition of cAMP accumulation in H9C2 cells (H9C2 cells): little inhibition
